Values of other authors, collected in US20240216401A1, “COMBINATION THERAPY BY USING AKR1C3-ACTIVATED COMPOUND WITH IMMUNE CHECKPOINT INHIBITOR” (OBI Pharma, Inc., priority 2021, published 2024).

Test system: tumor
Settings: in vitro and in vivo; references 6, 21; cited from earlier work

CS(=O)(=O)OCCN(CCBr)c1c(C(=O)NCCOP(=O)(O)O)cc([N+](=O)[O-])cc1[N+](=O)[O-] [PR104]
anti-tumor activity (in words): good anti-tumor activity
